As usually defined, the IC50 is the point on the concentration scale where inhibition reaches its midpoint. As a reminder, the EC50 is the concentration needed to bring the measured effect to its halfway point. What is called melting point is the temperature, or range, at which the solid turns liquid.

Read-outs that look alike come from different tables or passages of the source.

These results are taken from publication PMC6269873, “Substituted 3-Benzylcoumarins as Allosteric MEK1 Inhibitors: Design, Synthesis and Biological Evaluation as Antiviral Agents” (Molecules, 2013).

The target of one data set is phosphorylated MEK1 (Homo sapiens, UniProt Q02750). Nature of the data set: MEK1 binding assay (HTRF, tracer displacement). The following applies: for inhibition at 2 µM: read-out: % binding (2 µM); for inhibition at 20 µM: read-out: % binding (20 µM). The essentials: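 5 nM GST-tagged phosphorylated MEK1, 2 nM Eu anti-GST antibody and 20 nM kinase tracer 236 incubated with compound 30 min at room temperature in the dark.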
Chain of phosphorylated MEK1 (Q02750 whole entry): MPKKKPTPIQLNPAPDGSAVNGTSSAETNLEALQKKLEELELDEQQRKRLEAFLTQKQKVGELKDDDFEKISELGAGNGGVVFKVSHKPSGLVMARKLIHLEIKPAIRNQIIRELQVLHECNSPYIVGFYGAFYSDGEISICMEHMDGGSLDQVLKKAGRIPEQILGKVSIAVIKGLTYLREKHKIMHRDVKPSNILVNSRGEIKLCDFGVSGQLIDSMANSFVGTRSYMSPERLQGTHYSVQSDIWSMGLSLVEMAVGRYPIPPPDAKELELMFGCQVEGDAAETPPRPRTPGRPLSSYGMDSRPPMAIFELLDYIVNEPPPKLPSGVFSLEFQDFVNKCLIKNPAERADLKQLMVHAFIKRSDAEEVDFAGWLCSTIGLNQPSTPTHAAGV
On the technique in general: In TR-FRET formats the signal depends on donor and acceptor labels being close together.

The next data set relates to ERK pathway. Nature of the data set: cells. The format is cell-based, Human. The following applies: for IC50: Homo sapiens, HEK293. Here is the method: The effects of the inhibitors on the activation of ERK pathway were determined in TPA (12-O-tetradecanoylphorbol-13-acetate)-stimulated cells using the AP-1 luciferase reporter gene assay system. Activating protein-1 (AP-1) is the nuclear transcription factor which is a heterodimeric protein downstream of MAPK composed of dimers of the Fos and Jun proteins. The stable AP-1 dimers bind to DNA recognition elements (AP-1 response elements) and mediate transcriptional induction. AP-1 controls a number of cellular events including differentiation, proliferation and apoptosis. Simultaneously, the expression of AP-1 can be regulated in response to different extracellular stimuli, such as cytokines, growth factors, stress, and bacterial and viral infections. ERK pathway is the most important mediator which is closely related to these responses. Activation of ERK pathway causes induction of fos gene, and then the product heterodimerizes with the Jun protein to form the AP-1 dimers. These newly formed heterodimers can enhance the expression of c-jun through AP-1 binding sites in the c-jun promoter. TPA can increase levels of AP-1 proteins through activation of the ERK pathway.
3.4.2. AP-1 Luciferase Reporter Gene Assay
pAP1-Luc was constructed with pGL3-basic (Promega, Madison, WI. USA) and a fragment including the AP-1 response element (2× TRE) and T7 promoter. HEK 293 cells in 96-well plates were cultured at 5% CO2 at 37 °C in DMEM containing 10% FBS. When the confluence was up to 80%, cells were transinfected with pAP1-Luc using lipofectamine 2000 (Life Technologies, Carlsbad, CA. USA). At 24 h post transinfection, individual compounds with different concentrations (5, 10, 20, 30 μM) were added into cells using three wells for each concentration used. After incubation for 1 h, TPA (50 nM) was added. The cells were harvested after 4 h and luciferase activity was measured by using luciferase assay kit (Promega) with a luminometer.

Data set [1] deals with EV71. Nature of the data set: microbe, parasite or virus in culture. The note with it: for EC50: Enterovirus A, EV71, HEK293. Here is the method: (§1) To further examine the functional effects, we selected EV71 to perform the antiviral analysis. […] CC50 is the median cytotoxic concentration measured with the MTT assay.
(§2) RD cells were cultured in DMEM and up to 70%–80% confluence in 96-well plates. Compounds were added into the culture medium for 1 h prior to virus infection using four wells for each concentration used. The compounds were added at the following concentrations: 1.25, 2.5, 5, 10, 20, 40 μM. Then cells were infected withEV71 (a clinical strain denoted as EV71-BC08, GU475127) at a multiplicity of infection (MOI) of 1. Virus controls (untreated wells of infected cells), cell controls (cells and drugs only, using the same dilution range for each compound as the test wells) were included on the plate. The cytopathic effect (CPE) were examined at every 12 h intervals post-infection by using phase-contrast microscopy. […] The cytotoxicity (CC50) was assayed by the MTT method.

In data set [2] the test system is EV71. Put plainly: microbe, parasite or virus in culture. The following applies: for EC50: Enterovirus A, EV71, RD. The method, then:
as §1, §2

Data set [3] concerns unphosphorylated human MEK1. Also noted: method as in PMID 16199156. The following applies: inhibition of activation of unphosphorylated human MEK1; cited from earlier work.
Where [4] appears, read: HTRF binding to GST tagged phosphorylated MEK1, read-out: IC50.

`Cc1c(Cc2ccccc2)c(=O)oc2cc(OC(=O)N(C)C)ccc12` [Compound 13, 3-Benzyl-4-methyl-2-oxo-2H-chromen-7-yl dimethylcarbamate] came in with a melting point of 130 to 133 °C. In addition, at phosphorylated MEK1, the IC50 was determined as 0.223 µM, the inhibition at 2 µM stood at 75.6% and the inhibition at 20 µM is 95.2%. In addition, in the data set on ERK pathway, the “inhibition of ERK pathway activation (in words)” value (from here on “inhibition … (in words)”) was “more efficiently than U0126” and half-maximal inhibition (IC50) was put at 5.4 ± 1.26 µM. In addition, in the data set on EV71 [1], the “TI (CC50/IC50)” value came to 29.85 and the EC50 is 3.29 µM. Moreover, in the data set with EV71 [2], the “TI (CC50/IC50)” value was 60.8 and the EC50 is 2.5 µM.

`Cc1c(Cc2ccccc2)c(=O)oc2cc(OC(=O)N(C)C)c(Cl)cc12` [Compound 14, 3-Benzyl-6-chloro-4-methyl-2-oxo-2H-chromen-7-yl dimethylcarbamate] registered a melting point of 156 to 157 °C. Further, at phosphorylated MEK1, the IC50 turned out to be 0.307 µM, the inhibition at 2 µM is 66.3% and the inhibition at 20 µM is 80.8%. This compound registered a 50% inhibitory concentration (IC50) in the data set with ERK pathway of 30.8 ± 1.4 µM.

Regarding `Cc1c(Cc2ccc(F)cc2)c(=O)oc2cc(OC(=O)N(C)C)ccc12` [Compound 17, 3-(4-Fluorobenzyl)-4-methyl-2-oxo-2H-chromen-7-yl dimethylcarbamate], the melting point was in the range of 149 to 150 °C. Besides, on phosphorylated MEK1, the IC50 came out at 0.408 µM, the inhibition at 2 µM was found to be 71.6% and the inhibition at 20 µM is 82.1%. In addition, in the data set on ERK pathway, the “inhibition … (in words)” value was “more efficiently than U0126” and the IC50 came out at 4.06 ± 3.26 µM. Also, in the data set on EV71 [2], the “TI (CC50/IC50)” value is reported as 16.36 and a half-maximal effect (EC50) was put at 5.25 µM.

As to `CCc1c(Cc2ccc(F)cc2)c(=O)oc2cc(OC(=O)N(C)C)ccc12` [Compound 18, 4-Ethyl-3-(4-fluorobenzyl)-2-oxo-2H-chromen-7-yl dimethylcarbamate], at phosphorylated MEK1, the IC50 amounted to 0.0546 µM, the “binding affinity (in words)” value is “active”, the inhibition at 2 µM came out at 98.2% and the inhibition at 20 µM was 99.4%. In addition, in the data set on ERK pathway, the “inhibition … (in words)” value is “more efficiently than U0126” and the half-inhibitory concentration (IC50) is 23.4 ± 1.11 µM. Besides, in the data set on EV71 [1], the “TI (CC50/IC50)” value is listed as 3.37 and it took 19.4 µM to reach a half-maximal effect (EC50). Moreover, in the data set on EV71 [2], the “TI (CC50/IC50)” value worked out at 7.29 and it took 10 µM to reach a half-maximal effect (EC50).

Compound `CCCc1c(Cc2ccc(F)cc2)c(=O)oc2cc(OC(=O)N(C)C)ccc12` [Compound 19, 3-(4-Fluorobenzyl)-2-oxo-4-propyl-2H-chromen-7-yl dimethylcarbamate] displayed a melting point of 82 to 84 °C. Also, on phosphorylated MEK1, the IC50 came out at 0.158 µM, the inhibition at 2 µM came out at 66.2% and the inhibition at 20 µM amounted to 87.6%. Moreover, in the data set with ERK pathway, the “inhibition … (in words)” value is “more efficiently than U0126” and the IC50 turned out to be 4.31 ± 2.14 µM. Moreover, in the data set on EV71 [1], the “TI (CC50/IC50)” value is 65.24 and it took 4.85 µM to reach a half-maximal effect (EC50). Besides, in the data set on EV71 [2], the “TI (CC50/IC50)” value came to 190 and the EC50 was 3.98 µM.

In turn, `CC(=O)Oc1ccc2c(C)c(Cc3ccccc3)c(=O)oc2c1` [Compound 28, 3-Benzyl-4-methyl-2-oxo-2H-chromen-7-yl acetate] showed a melting point of 165 to 166 °C. For the same compound, the IC50 on phosphorylated MEK1 (setting [4]) came out at 0.52 µM. Besides, on phosphorylated MEK1, the inhibition at 2 µM amounted to 72.2% and the inhibition at 20 µM stood at 96.5%. In the data set on ERK pathway, this compound gave an IC50 of 37.6 ± 1.1 µM.

The compound `CCc1c(Cc2ccccc2)c(=O)oc2cc(OC(C)=O)ccc12` [Compound 29, 3-Benzyl-4-ethyl-2-oxo-2H-chromen-7-yl acetate] gave a melting point of 123 to 125 °C. For the same compound, at phosphorylated MEK1 (setting [4]), the IC50 was determined as 0.176 µM. In addition, on phosphorylated MEK1, the inhibition at 2 µM is 88.7% and the inhibition at 20 µM was found to be 102%. In the data set with ERK pathway, it took 90.5 ± 1.83 µM to reach half-maximal inhibition (IC50).

For `CC(=O)Oc1ccc2c(C)c(Cc3ccc(F)cc3)c(=O)oc2c1` [Compound 31, 3-(4-Fluorobenzyl)-4-methyl-2-oxo-2H-chromen-7-yl acetate], the IC50 at phosphorylated MEK1 (setting [4]) was determined as 0.248 µM. Besides, on phosphorylated MEK1, the inhibition at 2 µM was found to be 72.2% and the inhibition at 20 µM stood at 78.2%. Moreover, in the data set with ERK pathway, the “inhibition … (in words)” value is listed as “more efficiently than U0126” and the midpoint of inhibition, the IC50, lay at 15.7 ± 1.18 µM.

In the case of `CCCc1c(Cc2ccc(F)cc2)c(=O)oc2cc(OC(C)=O)ccc12` [Compound 33, 3-(4-Fluorobenzyl)-2-oxo-4-propyl-2H-chromen-7-yl acetate], the melting point lay within 150 to 151 °C. Besides, the IC50 at phosphorylated MEK1 (setting [4]) was determined as 0.252 µM. Besides, at phosphorylated MEK1, the inhibition at 2 µM came out at 61.4% and the inhibition at 20 µM was determined as 72.2%. Moreover, in the data set on ERK pathway, the “inhibition … (in words)” value is “more efficiently than U0126” and the IC50 came out at 11.6 ± 1.2 µM. Besides, the EC50 in the data set on EV71 [1] is 12.8 µM. Moreover, the EC50 with EV71 [2] came out at 18.5 µM.

The compound `CCC(=O)Oc1ccc2c(CC)c(Cc3ccccc3)c(=O)oc2c1` [Compound 36, 3-Benzyl-4-ethyl-2-oxo-2H-chromen-7-yl propionate] came in with a melting point of 124 °C. The IC50 at phosphorylated MEK1 (setting [4]) was found to be 0.391 µM. For the same compound, on phosphorylated MEK1, the inhibition at 2 µM amounted to 81% and the inhibition at 20 µM turned out to be 87%. In the data set with ERK pathway, this compound gave an IC50 of 49.8 ± 1.24 µM.

`CCC(=O)Oc1ccc2c(C)c(Cc3ccc(F)cc3)c(=O)oc2c1` [Compound 38, 3-(4-Fluorobenzyl)-4-methyl-2-oxo-2H-chromen-7-yl propionate] displayed a melting point of 115 to 116 °C. In addition, on phosphorylated MEK1 (setting [4]), the IC50 is 0.19 µM. At phosphorylated MEK1, the inhibition at 2 µM came out at 75.7% and the inhibition at 20 µM was found to be 90.8%. This compound also displayed an IC50 in the data set on ERK pathway of 38.1 ± 1.26 µM.

As to `CCCc1c(Cc2ccc(F)cc2)c(=O)oc2cc(OC(=O)CC)ccc12` [Compound 40, 3-(4-Fluorobenzyl)-2-oxo-4-propyl-2H-chromen-7-yl propionate], the melting point fell in the range of 94 to 95 °C. Further, on phosphorylated MEK1 (setting [4]), the IC50 was 0.176 µM. For the same compound, on phosphorylated MEK1, the inhibition at 2 µM stood at 72.2% and the inhibition at 20 µM is 78.5%. This compound displayed an IC50 in the data set with ERK pathway of 87.5 ± 1.98 µM.

With `CCCC(=O)Oc1ccc2c(C)c(Cc3ccccc3)c(=O)oc2c1` [Compound 42, 3-Benzyl-4-methyl-2-oxo-2H-chromen-7-yl butyrate], the melting point lay in the range of 139 to 140 °C. In addition, the half-inhibitory concentration (IC50) at phosphorylated MEK1 (setting [4]) is 0.353 µM. On phosphorylated MEK1, the inhibition at 2 µM worked out at 53.8% and the inhibition at 20 µM worked out at 68.4%. In the data set with ERK pathway, this compound gave an IC50 of 88.7 ± 2.52 µM.

In the case of `CCCC(=O)Oc1ccc2c(CC)c(Cc3ccccc3)c(=O)oc2c1` [Compound 43, 3-Benzyl-4-ethyl-2-oxo-2H-chromen-7-yl butyrateen-7-yl propionate], the melting point turned out to be 102 °C. For the same compound, the IC50 at phosphorylated MEK1 (setting [4]) came to 0.473 µM. Moreover, on phosphorylated MEK1, the inhibition at 2 µM amounted to 45% and the inhibition at 20 µM was 54.7%. In the data set with ERK pathway, the midpoint of inhibition, the IC50, lay at 85.9 ± 1.46 µM.

On to `CCc1c(Cc2ccc(F)cc2)c(=O)oc2cc(OC(=O)c3ccccc3)ccc12` [Compound 67, 4-Ethyl-3-(4-fluorobenzyl)-2-oxo-2H-chromen-7-yl benzoate], for which the melting point lay within 70 to 71 °C. Also, at phosphorylated MEK1, the “binding affinity (in words)” value was “inactive”, the inhibition at 2 µM turned out to be 44.6% and the inhibition at 20 µM was 21.3%. In the data set with ERK pathway, the midpoint of inhibition, the IC50, lay at 64.6 ± 1.74 µM.

For the compound `Cc1c(Cc2ccc(F)cc2)c(=O)oc2cc(OC(=O)N(C)C)ccc12` [Compound G8935], in data set [3], the IC50 is 0.3 µM.
